Test results: publication PMC3558805 (British Journal of Clinical Pharmacology, 2012)
Converted amounts (≈) assume the structure as drawn. “Also recorded” adds a separate entry of the source.

Experiments:
[1] = system: CYP3A4; assay: CYP3A4 induction assay; assay type: in vivo, human; conditions: up to 3 days dosing
[2] = Plasma pharmacokinetics of OZ439, summary over single and multiple dose parts; assay type: in vivo, human
[3] = Food effect on plasma PK, 800 mg OZ439 oral dispersion, fed vs fasted; assay type: in vivo; conditions: human; for AUC(0-t): single dose 800 mg OZ439 oral dispersion, geometric mean (CV%)
[4] = Urinary excretion of OZ439 and metabolites; assay type: in vivo, human; conditions: single rising dose, 0-48 h urine, data not shown
[5] = Multiple rising dose plasma PK, OZ439 oral dispersion once daily for 3 days; assay type: in vivo, human; conditions: for Rac / AUC(0-t) / Cmax: geometric mean (CV%); for AUC(0-t) / Cmax / Tmax: po; for AUC(0-t): AUC(0,24 h)
[6] = system: P. falciparum laboratory strain NF54; assay: Ex vivo bioactivity assay of serum samples; assay type: cell-based; conditions: Plasmodium falciparum
[7] = dogs, preclinical; cited from earlier work
[8] = Single rising dose plasma PK, OZ439 oral dispersion, fasted healthy subjects; assay type: in vivo, human; conditions: for Tmax / AUC(0-inf) / AUC(0-t) / Cmax: human, plasma, po
[9] = 14 day toxicology or CNS safety pharmacology studies, preclinical; cited from earlier work
[10] = system: Plasmodium berghei; conditions: single oral dose of 20 mg kg^−1; already known; cited from earlier work
[11] = Safety assessment in healthy subjects; assay type: in vivo, human
[12] = Single rising dose plasma PK, OZ439 capsule, fasted healthy subjects; assay type: in vivo, human
[13] = human, plasma, 200 mg, 200 mg once a day for 3 days, oral dispersion, day 1
[14] = human, plasma, 200 mg, 200 mg once a day for 3 days, oral dispersion, day 3
[15] = human, plasma, 400 mg, 400 mg once a day for 3 days, oral dispersion, day 1
[16] = human, plasma, 400 mg, 400 mg once a day for 3 days, oral dispersion, day 3
[17] = human, plasma, 800 mg, 800 mg once a day for 3 days, oral dispersion, day 1
[18] = human, plasma, 800 mg, 800 mg once a day for 3 days, oral dispersion, day 3
[19] = 800 mg oral dispersion, fasted regimen, possibly treatment related
[20] = single dose 1600 mg oral dispersion, related to study drug
[21] = both, human, plasma, oral, 50 mg
[22] = both, human, plasma, oral, 100 mg
[23] = both, human, plasma, oral, 200 mg

## c1cc([C@H]2CC[C@]3(CC2)OO[C@]2(O3)C3CC4CC(C3)CC2C4)ccc1OCCN1CCOCC1 [OZ439]
[1]
  induction of CYP3A4: did not induce
[2]; human, plasma, oral
  Tmax: ~3 h
[2]; well tolerated dose levels
  time plasma concentrations exceed the estimated minimum effective concentration: ~96 h
[3]
  concentration at 96 h: > 10 ng/mL
[3]; fasted
  AUC(0-t): 7590 ng·h/mL
[3]; fed
  AUC(0-t): 23100 ng·h/mL
[4]
  urinary concentrations: low or below the limit of quantitation
[5]; 400 mg once a day for 3 days, oral dispersion, day 3
  Rac: 1.76 (29.9)
[5]; 800 mg once a day for 3 days, oral dispersion, day 3
  Rac: 1.43 (26.0)
[5]; day 3 of dosing
  attainment of steady-state: steady-state was not achieved; also recorded: had not been attained
[5]; human, plasma, oral, 400 mg
  concentration at 96 h: ~17 ng/mL
[5]; [13]
  AUC(0-t): 2640 ng·h/mL
  Cmax: 314 ng/mL
[5]; [14]
  AUC(0-t): 3060 ng·h/mL
  Cmax: 342 ng/mL
[5]; human, plasma, 200 mg, tmax, 200 mg once a day for 3 days, oral dispersion, day 1, median (range)
  Tmax: 3.5 h
[5]; human, plasma, 200 mg, tmax, 200 mg once a day for 3 days, oral dispersion, day 3, median (range)
  Tmax: 3 h
[5]; [15]
  AUC(0-t): 4560 ng·h/mL
  Cmax: 505 ng/mL
[5]; [16]
  AUC(0-t): 7990 ng·h/mL
  Cmax: 764 ng/mL
[5]; human, plasma, 400 mg, tmax, 400 mg once a day for 3 days, oral dispersion, day 1, median (range)
  Tmax: 3.5 h
[5]; human, plasma, 400 mg, tmax, 400 mg once a day for 3 days, oral dispersion, day 3, median (range)
  Tmax: 3 h
[5]; [17]
  AUC(0-t): 9570 ng·h/mL
  Cmax: 1130 ng/mL
[5]; [18]
  AUC(0-t): 13700 ng·h/mL
  Cmax: 1390 ng/mL
[5]; human, plasma, 800 mg, median tmax, 200, 400 or 800 mg once daily for 3 days, oral dispersion
  Tmax: 3 h
[5]; human, plasma, 800 mg, tmax, 800 mg once a day for 3 days, oral dispersion, day 1, median (range)
  Tmax: 3 h
[5]; human, plasma, 800 mg, tmax, 800 mg once a day for 3 days, oral dispersion, day 3, median (range)
  Tmax: 3 h
[5]; multiple dose, oral dispersion
  inter-subject variability of AUC(0,24 h): 54.1%
  inter-subject variability of Cmax: 48.9%
[6]; NF54, ex vivo serum samples, average value
  IC50: 1.5 ng/mL (≈ 3.19 nM)
[6]; NF54, ex vivo serum samples, general range
  IC50: 1.3 to 2 ng/mL (≈ 2.77 to 4.26 nM)
[6]; NF54, pre-dose serum spiked with a known amount of OZ439
  IC50: 1.7 ng/mL (≈ 3.62 nM)
[7]
  no observed adverse effect level (NOAEL): 20 mg/kg/day
[8]; 400 mg oral dispersion, fasted
  time mean plasma concentrations were above 10 ng ml^−1: 36 h
[8]; 800 mg oral dispersion, fasted
  time mean plasma concentrations were above 10 ng ml^−1: 60 h
[8]; 800 mg, fasted
  AUC(0,t), oral dispersion compared with capsule: 3.2 fold
  Cmax, oral dispersion compared with capsule: 2.9 fold
[8]; 1600 mg oral dispersion, fasted
  time mean plasma concentrations were above 10 ng ml^−1: 96 h
[8]
  Tmax: 3 to 5 h
[8]; 400 mg
  AUC(0-inf): 5540 ng·h/mL
  AUC(0-t): 5430 ng·h/mL
  Cmax: 566 ng/mL
  Tmax: 3 h
[8]; 800 mg
  AUC(0-inf): 9790 ng·h/mL
  AUC(0-t): 9630 ng·h/mL
  Cmax: 917 ng/mL
  Tmax: 3 h
[8]; 1600 mg
  AUC(0-t): 17500 ng·h/mL
  Cmax: 1340 ng/mL
  Tmax: 5 h
[8]; oral dispersion
  inter-subject variability of AUC(0,∞): 57.2%
  inter-subject variability of Cmax: 41.8%
  intra-subject variability of AUC(0,∞): 23.2%
  intra-subject variability of Cmax: 14.0%
[9]
  central nervous system toxicity: no preclinical evidence of central nervous system toxicity
[10]
  cure of Plasmodium berghei-infected mice: completely cures
[11]; 200 mg once daily for 3 days
  subjects experiencing AEs: Three of six
[11]; 400 mg once daily for 3 days
  subjects experiencing AEs: 1/6
[11]; 800 mg once daily for 3 days
  subjects experiencing AEs: 4/6
[11]; [19]
  headache: 1/12
  nausea: 1/12
  oropharyngeal pain: 1/12
[11]; 800 mg oral dispersion, fed regimen
  subjects experiencing AEs: Three of 12
[11]; 800 mg oral dispersion, fed regimen, possibly treatment related
  headache: 2/12
[11]; 200, 400 and 800 mg once daily for 3 days
  safety and tolerability: safe and well tolerated
[11]; healthy subjects
  effect on QTc interval: no significant effect
[11]; other single rising dose groups, out of 6–8
  overall incidence of AEs: 0–2 subjects
[11]; single dose 800 mg oral dispersion, fasted or fed
  safety and tolerability: safe and well tolerated
[11]; single dose 1600 mg oral dispersion
  overall incidence of AEs: 5/6
[11]; [20]
  diarrhoea: 3/6
  gastrointestinal hypermotility: 2/6
  nausea: 3/6
[11]; single dose and repeat dose parts
  effect on audiometry/BAEP: no clinically significant changes; also recorded: No effect
[11]; single doses 50 mg up to 1200 mg capsule, oral dispersion up to 1600 mg
  safety and tolerability: safe and well tolerated
[12]; [21]
  AUC(0-t): 102 ng·h/mL
  Cmax: 17.4 ng/mL
  Tmax: 3 h
[12]; [22]
  AUC(0-t): 249 ng·h/mL
  Cmax: 34.2 ng/mL
  Tmax: 5 h
[12]; [23]
  AUC(0-t): 890 ng·h/mL
  Cmax: 102 ng/mL
  Tmax: 3.5 h
[12]; both, human, plasma, oral, 400 mg
  Cmax: 135 ng/mL
[12]; capsule
  inter-subject variability of AUC(0,t): 71.5%
  inter-subject variability of Cmax: 79.5%
  intra-subject variability of AUC(0,t): 92.6%
  intra-subject variability of Cmax: 77.4%
[12]; human, plasma, oral
  Tmax: 3 to 5 h
[12]; human, plasma, oral, 400 mg
  AUC(0-t): 1130 ng·h/mL
  Tmax: 3 h
[12]; human, plasma, oral, 800 mg
  AUC(0-inf): 4690 ng·h/mL
  AUC(0-t): 3010 ng·h/mL
  Cmax: 315 ng/mL
  Tmax: 3 h
  concentration at 24 h: > 20 ng/mL
[12]; human, plasma, oral, 1200 mg
  AUC(0-inf): 9130 ng·h/mL
  AUC(0-t): 6530 ng·h/mL
  Cmax: 701 ng/mL
  Tmax: 3 h
